US5728684A, “Determination of prodrugs metabolizable by the liver and therapeutic use thereof” (priority 1994, dated 1998)
Entries after “also recorded” stand apart in the source; their conditions may differ.

Legend:
[1] = tested on: Alcohol dehydrogenase; assay: IPdR conversion by alcohol dehydrogenase; assay type: biochemical; conditions: purified preparation
Text: (§1) In order to determine which enzyme is responsible for the catalysts of this IPdR oxidation, a series of known oxido-reductases which have similar capability to oxidize a carbon atom with an adjacent amino group into a carbonyl functionality were explored for their ability to catalyze IPdR oxidation. […] A mixed function oxidase system prepared from the microsome of rat liver a broad spectrum of substrates and is NADPH dependent. […] Alcohol dehydrogenase (which can be obtained from Sigma) and alcohol oxidase (which can be obtained from Sigma) both reside in the soluble fraction of liver cell extracts, but the conversion of IPdR to […] was not detected with purified preparation of either enzyme under the same conditions that they converted their natural substrates effectively. […]

[2] = tested on: rat liver homogenate; assay: HPLC time course of conversion of IPdR by rat liver homogenate; assay type: in vitro ADME
Description: FIGS. 1A-1C depict HPLC profiles of the conversion of IPdR to IUdR by liver homogenate. IPdR was incubated with rat liver homogenate. For control reactions, a portion of the supernatant was boiled for 5 minutes to inactivate all enzymes before use. The assay condition was as described hereinafter except 60 μl of the 100,000 g×60 minute supernatant (equivalent to approximately 0.5 mg protein/ml) was used in a reaction volume of 1500 μl . […]
(§2) For the standard assay condition, the reaction mixture contained 50 mM Tris-HCl, pH 7.5, 1 mM EDTA, 180 μM of IPdR (or its analogs) and approximately 0.01 mg protein of 10,000 g supernatant of tissue homogenate in a final volume of 500 μl and the incubation was at 37° C. for 10 minutes unless specified otherwise. […] The samples were reconstituted to the original aliquot volume with the HPLC mobile phase buffer and analyzed on a Alltech RP-18 column. IPdR, IUdR and IU were detected at a UV absorption wavelength of 230 nm, and IPdR was also detected at a UV absorption wavelength of 335 nm. […]
To study the conversion of IPdR to IUdR by liver enzyme the metabolites of IPdR were analyzed after incubation with a supernatant of rat liver homogenate using a reverse phase HPLC technique. IPdR and IUdR could be detected at an absorption wavelength of 230 nm but only IPdR could be detected at 335 nm. […]

[3] = tested on: Sarcosine oxidase; assay: IPdR oxidation by sarcosine oxidase; assay type: biochemical
Text: as §1

[4] = tested on: mixed function oxidase system; assay: IPdR oxidation by mixed function oxidase system from rat liver microsomes; assay type: in vitro ADME; conditions: with or without NADPH
Text: as §1

[5] = tested on: thymidine phosphorylase; conditions: cited from earlier work
[6] = tested on: liver and tumor tissue; assay: Thymidine replacement in liver and tumor tissue of athymic nude mice having metastatic tumors; assay type: in vivo; conditions: 100, 250, 500 mg/kg/d (FIG. 7)
Description: Mice were administered daily dosages of 0, 100, 250 and 500 mg/kg/d to determine thymidine replacement in liver and tumor tissue. The results presented in FIG. 7 are presented as mean percent thymidine replacement ± one standard error of the mean. n≥3 (control tumors n=2).

[7] = tested on: uninfected cells; conditions: Lewandowski et al. 1989; cited from earlier work
[8] = tested on: IPdR oxidase; assay: Conversion of IPdR to IUdR by cell extracts (human liver); assay type: in vitro ADME; conditions: 3 samples
Description: Rat hepatic tissue was washed with ice-cold 1.15% KCl and blotted dry. The tissue was then homogenized with a tissue homogenizer, in a volume of 1.15% KCl that was 3 times the tissue weight, to form a 25% (w/v) homogenate. The homogenate was then centrifuged at 10,000 g for 10 minutes at 4° C. The resulting supernatant was filtered through Miracloth (similar to cheese cloth) then dialyzed overnight against 50 mM Tris-HCl buffer pH 7.5 and stored at -80° C. before use. Rat hepatocytes were obtained by a perfusion technique then the cells were extracted with 10 mM phosphate buffer, pH 7.5, containing 1M KCl and dialyzed for 4 hours against 50 mM Tris-HCl buffer pH 7.5.
as §2, with “otherwise. 300 μl of reaction mixture was removed at the end of incubation and mixed with 630 μl acetonitrile then agitated.” for “otherwise.”

## O=c1ncc(I)cn1[C@H]1C[C@H](O)[C@@H](CO)O1 [IPdR, 1-(2-deoxy-β-D-ribofuranosyl)-5-(iodo)-2-pyrimidinone]
[1]
  conversion of IPdR by alcohol dehydrogenase: not detected
[2]; 37° C., 0, 15, 30 minutes (FIG. 1)
  conversion of IPdR to IUdR over time: time dependent conversion of IPdR to IUdR
[2]; IUdR
  product produced from IPdR: IUdR appeared to be the only product
[3]
  IPdR oxidase activity of sarcosine oxidase: no IPdR oxidase activity
[4]
  IPdR oxidase activity of rat liver microsomal fraction: no IPdR oxidase activity
[5]
  substrate for thymidine phosphorylase: not substrates for thymidine phosphorylase
[6]
  percent thymidine replacement in tumor: increasing tumor incorporation; also recorded: increasing percent replacement
[6]; normal liver
  percent incorporation in liver: negligible; also recorded: very small percent incorporation
[7]
  toxicity to uninfected cells: not toxic
[8]
  Specific activity of the conversion of IPdR to IUdR: 2-7 n mole/mg protein/min
